Source: publication PMC3435245, “D-Alanylation of Lipoteichoic Acids Confers Resistance to Cationic Peptides in Group B Streptococcus by Increasing the Cell Wall Density” (PLoS Pathogens, 2012)
≈ marks a conversion by molar mass, not a printed value. Where a SMILES comes first, the peptide text is derived from it. [ ]: non-standard residue; d: D form.

What was measured:
[1] = RP-HPLC hydrophobicity (% AcN at elution); assay type: physicochemical; details: chromatographic, C4 reverse analytical column; eluted in 40 min, linear gradient of acetonitrile 30 to 70% v/v in water containing TFA (0.05% v/v)
Procedure: The procedure conducted as described previously. Briefly, peptides were synthesized using the Fmoc solid phase method on Rink amide resin ([…]). For fluorescent labeling of the N-terminus of the peptides, resin-bound peptides were treated with NBD or rhodamine dissolved in dimethyl formamide (DMF), washed thoroughly with DMF and then with methylene chloride, dried and then cleaved. […] The peptides were subjected to amino acid and mass spectrometry analysis to confirm their composition.

GBS NEM316 WT strain = assay type: cell-based, Streptococcus agalactiae; details: Todd-Hewitt broth with 100 mM HEPES, 2×10^6 CFU, 96-well polypropylene microplate, overnight 37°C, OD600 nm; average of triplicate measurements
Procedure: (§1) The MICs of each antimicrobial peptide were tested in Todd-Hewitt broth (THB) buffered with 100 mM HEPES in 96-well polypropylene microplates (Costar, Cambridge, MA) by a dilution method. Bacteria (2×10^6 CFU) were added in triplicates to wells containing increasing concentrations of the antimicrobial peptides. Plates were incubated at 37°C with shaking overnight and then read (OD600 nm) using microplate reader (Labsystems Multiskanat) for bacterial growth. The MICs90 was considered to be the peptide concentration that inhibited 90% growth.

GBS ΔdltA mutant = assay: MIC90 by dilution method, GBS ΔdltA; assay type: cell-based, Streptococcus agalactiae; details: Todd-Hewitt broth with 100 mM HEPES, 2×10^6 CFU, 96-well polypropylene microplate, overnight 37°C, OD600 nm; average of triplicate measurements
Procedure: as §1

GBS ΔmprF mutant = assay: MIC90 by dilution method, GBS ΔmprF; assay type: cell-based, Streptococcus agalactiae; details: Todd-Hewitt broth with 100 mM HEPES, 2×10^6 CFU, 96-well polypropylene microplate, overnight 37°C, OD600 nm; average of triplicate measurements
Procedure: as §1

GBS Δlgt Δlsp mutant = assay: MIC90 by dilution method, GBS Δlgt Δlsp; assay type: cell-based, Streptococcus agalactiae; details: Todd-Hewitt broth with 100 mM HEPES, 2×10^6 CFU, 96-well polypropylene microplate, overnight 37°C, OD600 nm; average of triplicate measurements
Procedure: as §1

GBS ΔcpsD mutant = assay: MIC90 by dilution method, GBS ΔcpsD; assay type: cell-based, Streptococcus agalactiae; details: Todd-Hewitt broth with 100 mM HEPES, 2×10^6 CFU, 96-well polypropylene microplate, overnight 37°C, OD600 nm; average of triplicate measurements
Procedure: as §1

GBS ΔsrtA mutant = assay: MIC90 by dilution method, GBS ΔsrtA; assay type: cell-based, Streptococcus agalactiae; details: Todd-Hewitt broth with 100 mM HEPES, 2×10^6 CFU, 96-well polypropylene microplate, overnight 37°C, OD600 nm; average of triplicate measurements
Procedure: as §1

GBS WT and dltA strains = assay: SYTOX green uptake assay (membrane perforation); assay type: cell-based, Streptococcus agalactiae; details: 30 min exposure, 1 µM SYTOX green, sodium phosphate buffer 20 mM pH 7.4, excitation 485 nm, emission 520 nm; triplicates
Text: To determine whether altered susceptibility to CAMPs correlates with changes in membrane permeability, we measured the entrance of the cationic dye SYTOX green into the WT and dltA strains. SYTOX green cannot enter intact bacteria unless the membrane is disrupted by external compounds. Upon penetration into bacteria and binding to intracellular nucleic acids, its signal increases drastically. A dose-dependent enhancement of signal intensity was found following exposure to selected CAMPs.
Figure 2 Susceptibility of GBS strains to perforation by CAMPs. Peptide-dependent influx of the vital dye SYTOX green following 30 min exposure of GBS to magainin 2 (A), LL-37 (B), 5D-K6L9 (C) and K5L7 (D). Solid lines represent the WT strain whereas dashed lines represent the dltA muatnt. All readings were normalized by subtracting the basal fluorescence of the dye. Data are means ± SD of triplicate measurements.
Bacteria were washed twice, resuspended in sodium phosphate buffer (SPB, 20 mM, pH 7.4), and incubated with 1 µM SYTOX green for 20 min in the dark with agitation. Bacteria were added to a 96 well black plate (Nunc, Denmark) containing increasing concentrations of CAMPs and the increase in fluorescence, due to penetration and binding of the dye to intracellular DNA, was immediately monitored (excitation of 485 nm and emission of 520 nm). […]

In the case of CC(C)C[C@H](NC(=O)[C@H](CC(C)C)NC(=O)[C@@H](CCCCN)NC(=O)[C@H](CC(C)C)NC(=O)[C@H](CC(C)C)NC(=O)[C@H](CCCCN)NC(=O)[C@@H](CCCCN)NC(=O)[C@@H](CC(C)C)NC(=O)[C@H](CC(C)C)NC(=O)[C@@H](CCCCN)NC(=O)[C@H](CCCCN)NC(=O)[C@H](CC(C)C)NC(=O)[C@@H](CC(C)C)NC(=O)[C@H](CCCCN)NC(=O)[C@@H](N)CC(C)C)C(N)=O [5D-K6L9] (H-LK[dL]LK[dK]L[dL][dK]KLL[dK]LL-NH2; N-terminus assumed), the “Hydrophobicity (% AcN)” value [1] is reported as 55.6 % AcN, the “MIC90, WT” value (GBS NEM316 WT strain) is reported as 4.4 µM (≈ 7.94 µg/mL) and the “MIC90, ΔdltA” value (GBS ΔdltA mutant) is reported as 2.2 µM (≈ 3.97 µg/mL). For the same compound, the “MIC90, ΔmprF” value (GBS ΔmprF mutant) was 4.4 µM (≈ 7.94 µg/mL), the “MIC90, Δlgt Δlsp” value (GBS Δlgt Δlsp mutant) was 4.4 µM (≈ 7.94 µg/mL) and the “MIC90, ΔcpsD” value (GBS ΔcpsD mutant) was 4.4 µM (≈ 7.94 µg/mL). For the same compound, the “MIC90, ΔsrtA” value (GBS ΔsrtA mutant) was 4.4 µM (≈ 7.94 µg/mL) and the “SYTOX green influx signal, dltA mutant compared to WT” value (GBS WT and dltA strains) was “similarly active on both strains”.
